Columns and labels:
Assay type in all cases: in vivo
[1] = system: barnyardgrass (Echinochloa crus-galli); test: Test A pre-/postemergence plant response
In short: (§1)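 Approximately ten days after concurrent pre- and postemergence spraying in a greenhouse, plants were compared with untreated controls and rated visually for injury, 0 = no effect to 100 = complete control. Preemergence spray was directed onto loam/sand soil; postemergence targeted 1–2 leaf seedlings.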

corn (Zea mays) = test: Test A pre-/postemergence plant response
In short: as §1

[2] = system: giant foxtail (Setaria faberii); test: Test A pre-/postemergence plant response
In short: as §1

[3] = system: large crabgrass (Digitaria sanguinalis); test: Test A pre-/postemergence plant response
In short: as §1

[4] = system: morningglory (Ipomoea spp.); test: Test A pre-/postemergence plant response
In short: as §1

[5] = system: pigweed (Amaranthus retroflexus); test: Test A pre-/postemergence plant response
In short: as §1

[6] = system: velvetleaf (Abutilon theophrasti); test: Test A pre-/postemergence plant response; conditions: for Velvetleaf plant response rating: visual injury, 0 to 100 scale (0 no effect, 100 complete control)
In short: as §1

[7] = system: wheat (Triticum aestivum); test: Test A pre-/postemergence plant response; conditions: for Wheat plant response rating: visual injury, 0 to 100 scale (0 no effect, 100 complete control)
In short: as §1

[8] = system: canarygrass (Phalaris minor); test: Test B postemergence plant response; conditions: Postemergence
In short: (§2)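 Visual ratings from 0 (no effect) to 100 (complete control), made against controls 13–15 days after treatment, kept in a greenhouse. Compounds were applied postemergence to potted plants at the 1- to 4-leaf stage (2–18 cm).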

[9] = system: chickweed (Stellaria media); test: Test B postemergence plant response; conditions: Postemergence
In short: as §2

[10] = system: windgrass (Apera spica-venti); test: Test B postemergence plant response; conditions: Postemergence
In short: as §2

[11] = system: winter barley (Hordeum vulgare); test: Test B postemergence plant response; conditions: for Barley plant response rating (0 to 100 scale): 62 g ai/ha, postemergence, 0 is no effect, 100 is complete control; for Plant response rating, Barley: Postemergence
In short: as §2

[12] = Postemergence, 125 g ai/ha, 0 to 100 scale where 0 is no effect and 100 is complete control
[13] = Postemergence, 500 g ai/ha, 0 to 100 scale, 0 = no effect, 100 = complete control, approx. ten days
[14] = Preemergence, 125 g ai/ha, 0 to 100 scale, 0 = no effect, 100 = complete control
[15] = Preemergence, 500 g ai/ha, visual injury, 0 to 100 scale (0 no effect, 100 complete control), approx. ten days
[16] = Preemergence, 500 g ai/ha, 0 to 100 scale, 0 = no effect, 100 = complete control
[17] = 31 g ai/ha, 0 to 100 scale (0 no effect, 100 complete control)
[18] = 125 g ai/ha, scale 0 to 100 (0 no effect, 100 complete control)
[19] = 250 g ai/ha, scale 0 to 100 (0 no effect, 100 complete control), 13 to 15 days
[20] = Postemergence, 500 g ai/ha, visual injury, 0 to 100 scale (0 no effect, 100 complete control), approx. ten days
[21] = Postemergence, 500 g ai/ha, approx. ten days

Cc1ccc(F)cc1-n1c(-c2cccc(Cl)c2)ncc(C(=O)C2=C(O)CCCC2=O)c1=O [Compound 157]
Plant response rating, Barnyardgrass [1, 12]: 90
Plant response rating, Barnyardgrass [1, 13]: 100
Plant response rating, Barnyardgrass [1, 14]: 0
Plant response rating, Barnyardgrass [1, 15]: 50
Plant response rating, Corn (corn (Zea mays); [12]): 0
Plant response rating, Corn (corn (Zea mays); [13]): 30
Plant response rating, Corn (corn (Zea mays); [14]): 0
Plant response rating, Corn (corn (Zea mays); [15]): 0
Plant response rating, Foxtail, Giant [2, 12]: 90
Plant response rating, Foxtail, Giant [2, 13]: 100
Plant response rating, Foxtail, Giant [2, 14]: 10
Plant response rating, Foxtail, Giant [2, 15]: 50
Plant response rating, Crabgrass, Large [3, 12]: 80
Plant response rating, Crabgrass, Large [3, 13]: 100
Plant response rating, Crabgrass, Large [3, 14]: 20
Plant response rating, Crabgrass, Large [3, 15]: 70
Plant response rating, Morningglory [4, 12]: 10
Plant response rating, Morningglory [4, 13]: 30
Plant response rating, Morningglory [4, 14]: 0
Plant response rating, Morningglory [4, 15]: 0
Plant response rating, Pigweed [5, 12]: 90
Plant response rating, Pigweed [5, 13]: 100
Plant response rating, Pigweed [5, 14]: 0
Plant response rating, Pigweed [5, 15]: 50
Plant response rating, Velvetleaf [6, 12]: 100
Plant response rating, Velvetleaf [6, 13]: 100
Plant response rating, Velvetleaf [6, 14]: 60
Plant response rating, Velvetleaf [6, 16]: 100
Plant response rating, Wheat [7, 12]: 0
Plant response rating, Wheat [7, 13]: 0
Plant response rating, Wheat [7, 14]: 0
Plant response rating, Wheat [7, 16]: 0
Plant response rating, Canarygrass [8, 17]: 40
Plant response rating, Canarygrass [8, 18]: 80
Plant response rating, Canarygrass [8, 19]: 90
Plant response rating, Chickweed [9, 17]: 100
Plant response rating, Chickweed [9, 18]: 100
Plant response rating, Chickweed [9, 19]: 100
Plant response rating, Windgrass [10, 17]: 60
Plant response rating, Windgrass [10, 18]: 70
Plant response rating, Windgrass [10, 19]: 80
Barley plant response rating (0 to 100 scale) ([11]; 13 to 15 days): 15
Plant response rating, Barley [11, 17]: 5
Plant response rating, Barley [11, 18]: 30
Plant response rating, Barley [11, 19]: 30

Cc1ccccc1-n1c(-c2cc(F)cc(F)c2)ncc(C(=O)C2=C(O)CCCC2=O)c1=O [Compound 159]
Plant response rating, Barnyardgrass [1, 12]: 90
Barnyardgrass plant response rating [1, 20]: 100
Plant response rating, Barnyardgrass [1, 14]: 30
Plant response rating, Barnyardgrass [1, 16]: 90
Plant response rating, Corn (corn (Zea mays); [12]): 0
Corn plant response rating (corn (Zea mays); [20]): 70
Plant response rating, Corn (corn (Zea mays); [14]): 0
Plant response rating, Corn (corn (Zea mays); [16]): 40
Plant response rating, Foxtail, Giant [2, 12]: 90
Foxtail, Giant plant response rating [2, 20]: 100
Plant response rating, Foxtail, Giant [2, 14]: 60
Plant response rating, Foxtail, Giant [2, 16]: 90
Plant response rating, Crabgrass, Large [3, 12]: 90
Crabgrass, Large plant response rating [3, 20]: 90
Plant response rating, Crabgrass, Large [3, 14]: 80
Plant response rating, Crabgrass, Large [3, 16]: 100
Plant response rating, Morningglory [4, 12]: 100
Morningglory plant response rating [4, 20]: 100
Plant response rating, Morningglory [4, 14]: 0
Plant response rating, Morningglory [4, 16]: 50
Plant response rating, Pigweed [5, 12]: 100
Pigweed plant response rating [5, 20]: 100
Plant response rating, Pigweed [5, 14]: 100
Plant response rating, Pigweed [5, 16]: 100
Plant response rating, Velvetleaf [6, 12]: 100
Velvetleaf plant response rating [6, 21]: 100
Plant response rating, Velvetleaf [6, 14]: 70
Plant response rating, Velvetleaf [6, 16]: 100
Plant response rating, Wheat [7, 12]: 10
Wheat plant response rating [7, 21]: 60
Plant response rating, Wheat [7, 14]: 0
Plant response rating, Wheat [7, 16]: 20
Plant response rating, Canarygrass ([8]; 8 g ai/ha, 0 to 100 scale): 25
Plant response rating, Canarygrass ([8]; 16 g ai/ha, 0 to 100 scale): 40
Plant response rating, Canarygrass [8, 17]: 80
Plant response rating, Chickweed ([9]; 8 g ai/ha, 0 to 100 scale): 80
Plant response rating, Chickweed ([9]; 16 g ai/ha, 0 to 100 scale): 100
Plant response rating, Chickweed [9, 17]: 100
Plant response rating, Windgrass ([10]; 8 g ai/ha, 0 to 100 scale): 10
Plant response rating, Windgrass ([10]; 16 g ai/ha, 0 to 100 scale): 40
Plant response rating, Windgrass [10, 17]: 45
Plant response rating, Barley ([11]; 8 g ai/ha, 0 to 100 scale): 0
Plant response rating, Barley ([11]; 16 g ai/ha, 0 to 100 scale): 20
Barley plant response rating (0 to 100 scale) ([11]; 13 to 15 days): 50
Plant response rating, Barley [11, 17]: 20

O=C1CCCC(O)=C1C(=O)c1cnc(-c2ccccc2)n(C2CCSCC2)c1=O [Compound 164]
Plant response rating, Barnyardgrass [1, 12]: 100
Barnyardgrass plant response rating [1, 20]: 100
Plant response rating, Barnyardgrass [1, 14]: 10
Plant response rating, Barnyardgrass [1, 16]: 80
Plant response rating, Corn (corn (Zea mays); [12]): 10
Corn plant response rating (corn (Zea mays); [20]): 50
Plant response rating, Corn (corn (Zea mays); [14]): 0
Plant response rating, Corn (corn (Zea mays); [16]): 0
Plant response rating, Foxtail, Giant [2, 12]: 100
Foxtail, Giant plant response rating [2, 20]: 100
Plant response rating, Foxtail, Giant [2, 14]: 40
Plant response rating, Foxtail, Giant [2, 16]: 70
Plant response rating, Crabgrass, Large [3, 12]: 90
Crabgrass, Large plant response rating [3, 20]: 100
Plant response rating, Crabgrass, Large [3, 14]: 30
Plant response rating, Crabgrass, Large [3, 16]: 90
Plant response rating, Morningglory [4, 12]: 100
Morningglory plant response rating [4, 20]: 100
Plant response rating, Morningglory [4, 14]: 10
Plant response rating, Morningglory [4, 16]: 50
Plant response rating, Pigweed [5, 12]: 100
Pigweed plant response rating [5, 20]: 100
Plant response rating, Pigweed [5, 14]: 60
Plant response rating, Pigweed [5, 16]: 100
Plant response rating, Velvetleaf [6, 12]: 100
Velvetleaf plant response rating [6, 21]: 100
Plant response rating, Velvetleaf [6, 14]: 40
Plant response rating, Velvetleaf [6, 16]: 70
Plant response rating, Wheat [7, 12]: 0
Wheat plant response rating [7, 21]: 20
Plant response rating, Wheat [7, 14]: 0
Plant response rating, Wheat [7, 16]: 0
Plant response rating, Canarygrass [8, 17]: 40
Plant response rating, Canarygrass [8, 18]: 90
Plant response rating, Canarygrass [8, 19]: 98
Plant response rating, Chickweed [9, 17]: 80
Plant response rating, Chickweed [9, 18]: 98
Plant response rating, Chickweed [9, 19]: 100
Plant response rating, Windgrass [10, 17]: 5
Plant response rating, Windgrass [10, 18]: 75
Plant response rating, Windgrass [10, 19]: 85
Barley plant response rating (0 to 100 scale) ([11]; 13 to 15 days): 5
Plant response rating, Barley [11, 17]: 5
Plant response rating, Barley [11, 18]: 30
Plant response rating, Barley [11, 19]: 35

O=C1CCCC(O)=C1C(=O)c1cnc(-c2cc(F)cc(F)c2)n(C2CCCCC2)c1=O [Compound 181]
Plant response rating, Barnyardgrass [1, 12]: 100
Barnyardgrass plant response rating [1, 20]: 100
Plant response rating, Barnyardgrass [1, 14]: 20
Plant response rating, Barnyardgrass [1, 16]: 100
Plant response rating, Corn (corn (Zea mays); [12]): 10
Corn plant response rating (corn (Zea mays); [20]): 50
Plant response rating, Corn (corn (Zea mays); [14]): 0
Plant response rating, Corn (corn (Zea mays); [16]): 0
Plant response rating, Foxtail, Giant [2, 12]: 100
Foxtail, Giant plant response rating [2, 20]: 100
Plant response rating, Foxtail, Giant [2, 14]: 30
Plant response rating, Foxtail, Giant [2, 16]: 80
Plant response rating, Crabgrass, Large [3, 12]: 90
Crabgrass, Large plant response rating [3, 20]: 90
Plant response rating, Crabgrass, Large [3, 14]: 90
Plant response rating, Crabgrass, Large [3, 16]: 100
Plant response rating, Morningglory [4, 12]: 30
Morningglory plant response rating [4, 20]: 100
Plant response rating, Morningglory [4, 14]: 0
Plant response rating, Morningglory [4, 16]: 30
Plant response rating, Pigweed [5, 12]: 100
Pigweed plant response rating [5, 20]: 100
Plant response rating, Pigweed [5, 14]: 100
Plant response rating, Pigweed [5, 16]: 100
Plant response rating, Velvetleaf [6, 12]: 100
Velvetleaf plant response rating [6, 21]: 100
Plant response rating, Velvetleaf [6, 14]: 70
Plant response rating, Velvetleaf [6, 16]: 100
Plant response rating, Wheat [7, 12]: 30
Wheat plant response rating [7, 21]: 60
Plant response rating, Wheat [7, 14]: 0
Plant response rating, Wheat [7, 16]: 20
Plant response rating, Canarygrass [8, 17]: 50
Plant response rating, Canarygrass [8, 18]: 85
Plant response rating, Canarygrass [8, 19]: 90
Plant response rating, Chickweed [9, 17]: 100
Plant response rating, Chickweed [9, 18]: 100
Plant response rating, Chickweed [9, 19]: 100
Plant response rating, Windgrass [10, 17]: 40
Plant response rating, Windgrass [10, 18]: 60
Plant response rating, Windgrass [10, 19]: 65
Barley plant response rating (0 to 100 scale) ([11]; 13 to 15 days): 40
Plant response rating, Barley [11, 17]: 5
Plant response rating, Barley [11, 18]: 50
Plant response rating, Barley [11, 19]: 55
